In PubChem BioAssay AID1259407 (Chemical Carcinogenesis Research Information System (CCRIS), 2018):
Activity calls are given as the source filed them. The rule behind the calls is not given here.

Test system: CCRIS mutagenicity, Ames/micronucleus/aberration tests
Assay: CCRIS mutagenicity studies
[1] = Test System: AMES SALMONELLA TYPHIMURIUM, Strain/Indicator: TA98, Metabolic Activation: NONE, Method: PREINCUBATION
[2] = Test System: AMES SALMONELLA TYPHIMURIUM, Strain/Indicator: TA100, Metabolic Activation: NONE, Method: PREINCUBATION
[3] = Test System: AMES SALMONELLA TYPHIMURIUM, Strain/Indicator: TA98, Metabolic Activation: NONE, Method: STANDARD PLATE
[4] = Test System: AMES SALMONELLA TYPHIMURIUM, Strain/Indicator: TA100, Metabolic Activation: NONE, Method: STANDARD PLATE

`Cc1cc(O)c2c(c1O)C(=O)c1cccc(O)c1C2=O` was tested, and the mutagenic call (Test System: UDS RODENT HEPATOCYTES, Strain/Indicator: THY INCORP, Metabolic Activation: NONE, Method: AUTORADIOGRAPHY) was “inactive; negative”.

`Nc1c2c(nc3ccccc13)CCCC2` was tested, and the mutagenic call (Test System: AMES SALMONELLA TYPHIMURIUM, Strain/Indicator: TA97, Metabolic Activation: HAMSTER LIVER S-9, AROCLOR 1254 (30%), Method: PREINCUBATION) was “active; positive”, the mutagenic call (Test System: AMES SALMONELLA TYPHIMURIUM, Strain/Indicator: TA97, Metabolic Activation: NONE, Method: PREINCUBATION) was “active; positive” and the mutagenic call (Test System: AMES SALMONELLA TYPHIMURIUM, Strain/Indicator: TA97, Metabolic Activation: RAT LIVER S-9, AROCLOR 1254 (30%), Method: PREINCUBATION) was “active; positive”. The mutagenic call (Test System: AMES SALMONELLA TYPHIMURIUM, Strain/Indicator: TA98, Metabolic Activation: HAMSTER LIVER S-9, AROCLOR 1254 (5 OR 10%), Method: PREINCUBATION) was “inactive; negative”, the mutagenic call (Test System: AMES SALMONELLA TYPHIMURIUM, Strain/Indicator: TA98, Metabolic Activation: HAMSTER LIVER S-9, AROCLOR 1254 (30%), Method: PREINCUBATION) was “active; positive” and the mutagenic call [1] was “inactive; negative”. For the same molecule, the mutagenic call (Test System: AMES SALMONELLA TYPHIMURIUM, Strain/Indicator: TA98, Metabolic Activation: RAT LIVER S-9, AROCLOR 1254 (5%), Method: PREINCUBATION) was “active; positive”, the mutagenic call (Test System: AMES SALMONELLA TYPHIMURIUM, Strain/Indicator: TA98, Metabolic Activation: RAT LIVER S-9, AROCLOR 1254 (10%), Method: PREINCUBATION) was “active; positive” and the mutagenic call (Test System: AMES SALMONELLA TYPHIMURIUM, Strain/Indicator: TA98, Metabolic Activation: RAT LIVER S-9, AROCLOR 1254 (30%), Method: PREINCUBATION) was “inactive; negative”. For the same molecule, the mutagenic call [2] was “inactive; negative”, the mutagenic call (Test System: AMES SALMONELLA TYPHIMURIUM, Strain/Indicator: TA100, Metabolic Activation: RAT LIVER S-9, AROCLOR 1254 (30%), Method: PREINCUBATION) was “inactive; negative” and the mutagenic call (Test System: UDS MOUSE HEPATOCYTES, Strain/Indicator: THY INCORP, Metabolic Activation: NONE, Method: AUTORADIOGRAPHY) was “active; positive”. For the same molecule, the mutagenic call (Test System: UDS RAT HEPATOCYTES, Strain/Indicator: THY INCORP, Metabolic Activation: NONE, Method: AUTORADIOGRAPHY) was “active; positive”.

With `CC(=O)Nc1ccc2c(c1)[nH]c1ccccc12` the mutagenic call [3] was “active; positive”, the mutagenic call (Test System: AMES SALMONELLA TYPHIMURIUM, Strain/Indicator: TA98, Metabolic Activation: RAT, LIVER, S-9, PHENOBARBITAL, Method: STANDARD PLATE) was “active; positive” and the mutagenic call [4] was “inactive; negative”. The mutagenic call (Test System: AMES SALMONELLA TYPHIMURIUM, Strain/Indicator: TA100, Metabolic Activation: RAT, LIVER, S-9, PHENOBARBITAL, Method: STANDARD PLATE) was “inactive; negative”, the mutagenic call (Test System: AMES SALMONELLA TYPHIMURIUM, Strain/Indicator: TA1537, Metabolic Activation: NONE, Method: STANDARD PLATE) was “inactive; negative” and the mutagenic call (Test System: AMES SALMONELLA TYPHIMURIUM, Strain/Indicator: TA1538, Metabolic Activation: NONE, Method: STANDARD PLATE) was “active; positive”. For the same molecule, the mutagenic call (Test System: AMES SALMONELLA TYPHIMURIUM, Strain/Indicator: TA1538, Metabolic Activation: RAT, LIVER, S-9, PHENOBARBITAL, Method: STANDARD PLATE) was “active; positive”, the mutagenic call (Test System: AMES SALMONELLA TYPHIMURIUM, Strain/Indicator: TA1977, Metabolic Activation: NONE, Method: STANDARD PLATE) was “inactive; negative” and the mutagenic call (Test System: AMES SALMONELLA TYPHIMURIUM, Strain/Indicator: TA1977, Metabolic Activation: RAT, LIVER, S-9, PHENOBARBITAL, Method: STANDARD PLATE) was “inactive; negative”.

`C=C(C)C1CCC(=C)C2C3=C(C[C@H](C)C3=O)C(=O)C(C)=C[C@@H]12` (stereo not given in full) was tested, and the mutagenic call [3] was “inactive; negative”, the mutagenic call (Test System: AMES SALMONELLA TYPHIMURIUM, Strain/Indicator: TA98, Method: STANDARD PLATE) was “inactive; negative” and the mutagenic call [4] was “inactive; negative”. For the same molecule, the mutagenic call (Test System: AMES SALMONELLA TYPHIMURIUM, Strain/Indicator: TA100, Method: STANDARD PLATE) was “inactive; negative”.

With `CNNc1ccn([C@@H]2O[C@H](CO)[C@@H](O)[C@H]2O)c(=O)n1` the mutagenic call (Test System: CHINESE HAMSTER V-79, Strain/Indicator: V-79/6-THIOGUANINE, Metabolic Activation: NONE, Method: REPLATING) was “active; positive”.

`OC1c2cccc3ccc4cccc1c4c23` was tested, and the mutagenic call (Test System: AMES SALMONELLA TYPHIMURIUM, Strain/Indicator: TA98, Metabolic Activation: HUMAN, LIVER, CYTOSOL, PAPS, Method: PREINCUBATION) was “inactive; negative”.

In the case of `COc1ccc([N+](=O)[O-])ccc1=O`, the mutagenic call (Test System: AMES SALMONELLA TYPHIMURIUM, Strain/Indicator: TA98, Metabolic Activation: RAT, LIVER, S-9, KC500 OR PHENOBARBITAL, Method: LIQUID SUSPENSION) is reported as “active; positive” and the mutagenic call (Test System: AMES SALMONELLA TYPHIMURIUM, Strain/Indicator: TA100, Metabolic Activation: RAT, LIVER, S-9, KC500 OR PHENOBARBITAL, Method: LIQUID SUSPENSION) is reported as “active; positive”.

With `CC(=O)c1ccco1` the mutagenic call [3] was “inactive; negative”, the mutagenic call (Test System: AMES SALMONELLA TYPHIMURIUM, Strain/Indicator: TA98, Metabolic Activation: S-9, Method: STANDARD PLATE) was “active; positive” and the mutagenic call [4] was “inactive; negative”. For the same molecule, the mutagenic call (Test System: AMES SALMONELLA TYPHIMURIUM, Strain/Indicator: TA100, Metabolic Activation: S-9, Method: STANDARD PLATE) was “inactive; negative”.

`O=C(O)CCCCCCCCC(=O)O` was tested, and the mutagenic call [1] was “inactive; negative”, the mutagenic call (Test System: AMES SALMONELLA TYPHIMURIUM, Strain/Indicator: TA98, Metabolic Activation: RAT LIVER S-9, PHENOBARBITAL AND BETA-NAPHTHOFLAVONE, Method: PREINCUBATION) was “inactive; negative” and the mutagenic call (Test System: AMES SALMONELLA TYPHIMURIUM, Strain/Indicator: TA98, Metabolic Activation: RAT, LIVER, S-9, KC 500, Method: PREINCUBATION) was “inactive; negative”. The mutagenic call [2] was “inactive; negative”, the mutagenic call (Test System: AMES SALMONELLA TYPHIMURIUM, Strain/Indicator: TA100, Metabolic Activation: RAT LIVER S-9, PHENOBARBITAL AND BETA-NAPHTHOFLAVONE, Method: PREINCUBATION) was “inactive; negative” and the mutagenic call (Test System: AMES SALMONELLA TYPHIMURIUM, Strain/Indicator: TA100, Metabolic Activation: RAT, LIVER, S-9, KC 500, Method: PREINCUBATION) was “inactive; negative”. For the same molecule, the mutagenic call (Test System: AMES SALMONELLA TYPHIMURIUM, Strain/Indicator: TA1535, Metabolic Activation: NONE, Method: PREINCUBATION) was “inactive; negative”, the mutagenic call (Test System: AMES SALMONELLA TYPHIMURIUM, Strain/Indicator: TA1535, Metabolic Activation: RAT LIVER S-9, PHENOBARBITAL AND BETA-NAPHTHOFLAVONE, Method: PREINCUBATION) was “inactive; negative” and the mutagenic call (Test System: AMES SALMONELLA TYPHIMURIUM, Strain/Indicator: TA1535, Metabolic Activation: RAT, LIVER, S-9, KC 500, Method: PREINCUBATION) was “inactive; negative”. The mutagenic call (Test System: AMES SALMONELLA TYPHIMURIUM, Strain/Indicator: TA1537, Metabolic Activation: NONE, Method: PREINCUBATION) was “inactive; negative”, the mutagenic call (Test System: AMES SALMONELLA TYPHIMURIUM, Strain/Indicator: TA1537, Metabolic Activation: RAT LIVER S-9, PHENOBARBITAL AND BETA-NAPHTHOFLAVONE, Method: PREINCUBATION) was “inactive; negative” and the mutagenic call (Test System: AMES SALMONELLA TYPHIMURIUM, Strain/Indicator: TA1537, Metabolic Activation: RAT, LIVER, S-9, KC 500, Method: PREINCUBATION) was “inactive; negative”. The mutagenic call (Test System: AMES SALMONELLA TYPHIMURIUM, Strain/Indicator: TA1538, Metabolic Activation: NONE, Method: PREINCUBATION) was “inactive; negative”, the mutagenic call (Test System: AMES SALMONELLA TYPHIMURIUM, Strain/Indicator: TA1538, Metabolic Activation: RAT, LIVER, S-9, KC 500, Method: PREINCUBATION) was “inactive; negative” and the mutagenic call (Test System: E. COLI, Strain/Indicator: WP2UVRA/PKM101, Metabolic Activation: NONE, Method: PREINCUBATION) was “inactive; negative”. The mutagenic call (Test System: E. COLI, Strain/Indicator: WP2UVRA/PKM101, Metabolic Activation: RAT LIVER S-9, PHENOBARBITAL AND BETA-NAPHTHOFLAVONE, Method: PREINCUBATION) was “inactive; negative”, the mutagenic call (Test System: E. COLI, Strain/Indicator: WP2 UVRA, Metabolic Activation: NONE, Method: PREINCUBATION) was “inactive; negative” and the mutagenic call (Test System: E. COLI, Strain/Indicator: WP2 UVRA, Metabolic Activation: RAT, LIVER, S-9, KC 500, Method: PREINCUBATION) was “inactive; negative”.

For `O=C/C=C/C=C/C(=O)O`, the mutagenic call (Test System: CHINESE HAMSTER V-79, Strain/Indicator: V-79 (HGPRT)/8-AZAGUANINE, Metabolic Activation: NONE) was “active; positive”.

With `COc1cc(O)cc2c1cc([N+](=O)[O-])c1c(C(=O)O)cc3c(c12)OCO3` the mutagenic call (Test System: AMES SALMONELLA TYPHIMURIUM, Strain/Indicator: TM677/8-AZAGUANINE, Metabolic Activation: NONE, Method: SUSPENSION/PLATE) was “inactive; negative”.
